In the kinase profiling compilation of Christmann-Franck et al. (2016):

Columns and labels:
Experiment in all cases: radiometric filter-binding kinase assay, Kinase HotSpot
Conditions in all cases: compound 0.5 µM; ATP 10 µM
STK33 (human) = STK33 (human) (UniProt Q9BYT3)
MAP2K1 (human) = MAP2K1 (human) (UniProt Q02750)
GRK7 (human) = GRK7 (human) (UniProt Q8WTQ7)
STK39 (human) = STK39 (human) (UniProt Q9UEW8)
INSRR (human) = INSRR (human) (UniProt P14616)
PRKCZ (human) = PRKCZ (human) (UniProt Q05513)
PRKX (human) = PRKX (human) (UniProt P51817)
MYO3B (human) = MYO3B (human) (UniProt Q8WXR4)
ADRBK1 (human) = ADRBK1 (human) (UniProt P25098)
EPHA7 (human) = EPHA7 (human) (UniProt Q15375)
PRKACG (human) = PRKACG (human) (UniProt P22612)
AXL (human) = AXL (human) (UniProt P30530)
CAMKK1 (human) = CAMKK1 (human) (UniProt Q8N5S9)
BMX (human) = BMX (human) (UniProt P51813)
DYRK4 (human) = DYRK4 (human) (UniProt Q9NR20)
LTK (human) = LTK (human) (UniProt P29376)
TXK (human) = TXK (human) (UniProt P42681)
PRKCB2 (human) = PRKCB2 (human) (UniProt P05771)
EPHA1 (human) = EPHA1 (human) (UniProt P21709)
DAPK3 (human) = DAPK3 (human) (UniProt O43293)
SRPK3 (human) = SRPK3 (human) (UniProt Q9UPE1)
CHEK2 (human) = CHEK2 (human) (UniProt O96017)
MARK2 (human) = MARK2 (human) (UniProt Q7KZI7)
DDR2 (human) = DDR2 (human) (UniProt Q16832)
BRSK1 (human) = BRSK1 (human) (UniProt Q8TDC3)
GRK5 (human) = GRK5 (human) (UniProt P34947)
NEK2 (human) = NEK2 (human) (UniProt P51955)
BTK (human) = BTK (human) (UniProt Q06187)
CDK1 CCNB1 (human) = CDK1 CCNB1 (human) (UniProt P06493+P14635)
DYRK2 (human) = DYRK2 (human) (UniProt Q92630)
MAP3K5 (human) = MAP3K5 (human) (UniProt Q99683)
VRK1 (human) = VRK1 (human) (UniProt Q99986)
CSNK1G2 (human) = CSNK1G2 (human) (UniProt P78368)
PHKG1 (human) = PHKG1 (human) (UniProt Q16816)
PRKCD (human) = PRKCD (human) (UniProt Q05655)
MAP3K14 (human) = MAP3K14 (human) (UniProt Q99558)
TEK (human) = TEK (human) (UniProt Q02763)
SRPK2 (human) = SRPK2 (human) (UniProt P78362)
MAP4K2 (human) = MAP4K2 (human) (UniProt Q12851)
EGFR (human) = EGFR (human) (UniProt P00533)
FRK (human) = FRK (human) (UniProt P42685)
DYRK3 (human) = DYRK3 (human) (UniProt O43781)

Chain of CHEK2 (human) (O96017 whole entry, looked up): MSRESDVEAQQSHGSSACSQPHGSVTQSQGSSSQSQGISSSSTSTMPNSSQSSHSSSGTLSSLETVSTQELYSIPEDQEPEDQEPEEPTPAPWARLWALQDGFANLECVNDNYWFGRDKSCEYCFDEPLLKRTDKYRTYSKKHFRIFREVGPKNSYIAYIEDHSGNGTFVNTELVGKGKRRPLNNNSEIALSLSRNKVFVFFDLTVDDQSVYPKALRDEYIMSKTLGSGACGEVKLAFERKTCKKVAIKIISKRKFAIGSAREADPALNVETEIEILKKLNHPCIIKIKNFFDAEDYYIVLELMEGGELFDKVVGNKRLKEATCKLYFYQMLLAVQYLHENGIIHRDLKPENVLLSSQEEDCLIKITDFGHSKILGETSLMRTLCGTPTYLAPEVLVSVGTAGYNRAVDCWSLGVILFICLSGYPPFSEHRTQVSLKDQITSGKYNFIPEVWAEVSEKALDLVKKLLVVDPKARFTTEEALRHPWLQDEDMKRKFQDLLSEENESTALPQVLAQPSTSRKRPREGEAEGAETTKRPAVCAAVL
Chain of FRK (human) (P42685 whole entry, looked up): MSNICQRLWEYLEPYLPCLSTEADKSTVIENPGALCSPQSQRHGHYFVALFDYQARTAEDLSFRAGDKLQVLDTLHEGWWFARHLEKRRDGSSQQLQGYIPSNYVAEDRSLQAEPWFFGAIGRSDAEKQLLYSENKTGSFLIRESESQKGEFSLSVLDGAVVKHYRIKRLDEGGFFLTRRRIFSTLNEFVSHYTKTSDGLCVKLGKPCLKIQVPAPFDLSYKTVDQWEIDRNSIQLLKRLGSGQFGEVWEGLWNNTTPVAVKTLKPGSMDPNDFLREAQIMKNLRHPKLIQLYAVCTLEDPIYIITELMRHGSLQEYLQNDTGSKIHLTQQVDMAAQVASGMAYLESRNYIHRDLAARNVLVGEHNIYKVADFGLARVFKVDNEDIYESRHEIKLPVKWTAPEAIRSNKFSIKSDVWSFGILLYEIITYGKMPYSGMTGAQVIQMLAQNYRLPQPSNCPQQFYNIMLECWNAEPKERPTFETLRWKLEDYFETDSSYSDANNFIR
Chain of DAPK3 (human) (O43293 whole entry, looked up): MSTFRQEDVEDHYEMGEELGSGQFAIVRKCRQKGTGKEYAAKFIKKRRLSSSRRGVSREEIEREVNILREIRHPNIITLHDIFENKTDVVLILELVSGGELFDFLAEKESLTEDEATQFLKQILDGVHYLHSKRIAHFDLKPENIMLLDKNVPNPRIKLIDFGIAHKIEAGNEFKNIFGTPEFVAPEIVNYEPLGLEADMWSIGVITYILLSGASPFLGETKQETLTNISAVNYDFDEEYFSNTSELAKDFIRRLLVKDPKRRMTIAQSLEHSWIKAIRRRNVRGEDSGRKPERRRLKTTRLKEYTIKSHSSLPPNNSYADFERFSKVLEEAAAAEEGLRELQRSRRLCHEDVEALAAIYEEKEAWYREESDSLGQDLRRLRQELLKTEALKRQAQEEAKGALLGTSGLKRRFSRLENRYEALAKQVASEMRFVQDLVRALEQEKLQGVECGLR
Chain of PHKG1 (human) (Q16816 whole entry, looked up): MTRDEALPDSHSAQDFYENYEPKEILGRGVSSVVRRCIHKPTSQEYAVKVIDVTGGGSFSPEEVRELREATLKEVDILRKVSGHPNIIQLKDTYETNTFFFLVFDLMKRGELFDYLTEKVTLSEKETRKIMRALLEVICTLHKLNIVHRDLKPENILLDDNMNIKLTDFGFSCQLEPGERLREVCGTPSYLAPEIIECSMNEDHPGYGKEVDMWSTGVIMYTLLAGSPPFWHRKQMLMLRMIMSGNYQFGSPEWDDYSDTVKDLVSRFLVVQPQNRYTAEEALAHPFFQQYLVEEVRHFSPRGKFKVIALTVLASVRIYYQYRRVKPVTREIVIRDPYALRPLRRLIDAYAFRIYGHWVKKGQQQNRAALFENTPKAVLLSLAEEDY
Chain of PRKACG (human) (P22612 whole entry, looked up): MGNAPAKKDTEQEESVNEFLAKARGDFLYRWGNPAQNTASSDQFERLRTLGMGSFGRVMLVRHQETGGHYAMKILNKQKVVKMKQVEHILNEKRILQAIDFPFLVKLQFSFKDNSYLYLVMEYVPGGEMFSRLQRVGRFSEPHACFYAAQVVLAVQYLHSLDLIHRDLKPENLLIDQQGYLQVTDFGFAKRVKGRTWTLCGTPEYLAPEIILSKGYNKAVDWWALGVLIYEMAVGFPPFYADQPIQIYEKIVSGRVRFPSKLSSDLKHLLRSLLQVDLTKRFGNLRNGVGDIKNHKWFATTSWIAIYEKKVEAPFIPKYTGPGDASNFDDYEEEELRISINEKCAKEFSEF
Chain of SRPK3 (human) (Q9UPE1 whole entry, looked up): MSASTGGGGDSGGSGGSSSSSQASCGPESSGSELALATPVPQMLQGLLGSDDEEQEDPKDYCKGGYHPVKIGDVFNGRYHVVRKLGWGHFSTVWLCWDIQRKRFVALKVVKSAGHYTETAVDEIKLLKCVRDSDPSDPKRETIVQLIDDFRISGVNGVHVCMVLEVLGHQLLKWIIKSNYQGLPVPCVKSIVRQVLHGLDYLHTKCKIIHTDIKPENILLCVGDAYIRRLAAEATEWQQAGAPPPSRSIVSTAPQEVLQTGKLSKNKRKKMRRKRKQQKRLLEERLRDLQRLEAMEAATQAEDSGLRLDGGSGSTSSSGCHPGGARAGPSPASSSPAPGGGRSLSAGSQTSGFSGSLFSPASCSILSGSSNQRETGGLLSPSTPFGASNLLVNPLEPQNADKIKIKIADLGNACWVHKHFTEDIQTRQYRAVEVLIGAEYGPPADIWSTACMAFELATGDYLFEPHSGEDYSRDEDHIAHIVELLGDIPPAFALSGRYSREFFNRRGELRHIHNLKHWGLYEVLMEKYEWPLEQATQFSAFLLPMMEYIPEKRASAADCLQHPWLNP
Chain of MAP3K14 (human) (Q99558 whole entry, looked up): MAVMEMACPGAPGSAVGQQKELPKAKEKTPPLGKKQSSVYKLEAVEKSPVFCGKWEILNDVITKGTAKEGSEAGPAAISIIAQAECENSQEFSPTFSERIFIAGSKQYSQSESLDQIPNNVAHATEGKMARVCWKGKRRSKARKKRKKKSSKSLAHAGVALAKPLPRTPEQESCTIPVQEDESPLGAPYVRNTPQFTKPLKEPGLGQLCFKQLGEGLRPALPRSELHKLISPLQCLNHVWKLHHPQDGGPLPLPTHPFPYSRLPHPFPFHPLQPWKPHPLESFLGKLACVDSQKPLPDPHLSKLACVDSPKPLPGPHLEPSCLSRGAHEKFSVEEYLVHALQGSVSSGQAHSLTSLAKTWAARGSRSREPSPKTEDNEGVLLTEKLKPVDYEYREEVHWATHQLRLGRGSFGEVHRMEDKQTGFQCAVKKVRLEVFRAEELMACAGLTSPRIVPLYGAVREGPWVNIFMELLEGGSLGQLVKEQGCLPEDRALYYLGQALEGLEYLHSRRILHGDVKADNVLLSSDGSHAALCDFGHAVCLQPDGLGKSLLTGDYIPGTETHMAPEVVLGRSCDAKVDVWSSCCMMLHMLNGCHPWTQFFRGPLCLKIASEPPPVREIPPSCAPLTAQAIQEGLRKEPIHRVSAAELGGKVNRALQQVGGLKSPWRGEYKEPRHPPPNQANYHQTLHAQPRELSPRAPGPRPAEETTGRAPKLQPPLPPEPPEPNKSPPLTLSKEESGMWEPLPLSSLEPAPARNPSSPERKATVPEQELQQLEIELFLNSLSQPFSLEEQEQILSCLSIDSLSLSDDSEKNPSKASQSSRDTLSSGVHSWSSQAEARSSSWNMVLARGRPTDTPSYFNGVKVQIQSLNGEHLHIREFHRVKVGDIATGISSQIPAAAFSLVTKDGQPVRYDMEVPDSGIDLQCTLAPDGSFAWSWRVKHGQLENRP
Chain of DYRK4 (human) (Q9NR20 whole entry, looked up): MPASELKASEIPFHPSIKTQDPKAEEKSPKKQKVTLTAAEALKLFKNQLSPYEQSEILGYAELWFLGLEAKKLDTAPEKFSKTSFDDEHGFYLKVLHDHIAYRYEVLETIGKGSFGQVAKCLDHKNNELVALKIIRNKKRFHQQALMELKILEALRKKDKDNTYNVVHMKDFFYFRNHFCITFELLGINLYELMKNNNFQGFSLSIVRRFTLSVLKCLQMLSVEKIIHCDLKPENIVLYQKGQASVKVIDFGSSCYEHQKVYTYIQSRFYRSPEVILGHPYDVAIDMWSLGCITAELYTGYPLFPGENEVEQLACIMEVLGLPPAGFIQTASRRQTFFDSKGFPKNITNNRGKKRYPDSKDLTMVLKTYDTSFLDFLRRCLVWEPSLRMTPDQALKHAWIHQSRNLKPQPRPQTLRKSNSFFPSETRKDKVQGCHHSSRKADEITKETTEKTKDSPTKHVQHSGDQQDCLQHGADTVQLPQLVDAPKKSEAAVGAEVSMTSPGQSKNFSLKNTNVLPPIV
Chain of VRK1 (human) (Q99986 whole entry, looked up): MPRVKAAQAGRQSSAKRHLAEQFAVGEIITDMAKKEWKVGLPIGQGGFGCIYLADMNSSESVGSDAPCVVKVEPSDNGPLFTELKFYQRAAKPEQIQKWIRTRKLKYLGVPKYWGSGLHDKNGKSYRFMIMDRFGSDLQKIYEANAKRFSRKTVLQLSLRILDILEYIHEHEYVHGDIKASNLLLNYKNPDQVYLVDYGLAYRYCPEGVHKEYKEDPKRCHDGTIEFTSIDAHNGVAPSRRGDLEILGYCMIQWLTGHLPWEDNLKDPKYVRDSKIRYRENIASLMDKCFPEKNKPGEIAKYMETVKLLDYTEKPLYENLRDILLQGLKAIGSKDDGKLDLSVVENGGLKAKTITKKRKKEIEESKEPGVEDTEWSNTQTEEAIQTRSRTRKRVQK

Cc1[nH]c(/C=C2\C(=O)Nc3ccc(S(=O)(=O)N(C)c4cccc(Cl)c4)cc32)c(C)c1C(=O)N1CCN(C)CC1
residual activity (STK33 (human)): 67.9% | residual activity (MAP2K1 (human)): 89.3% | residual activity (GRK7 (human)): 86.7% | residual activity (STK39 (human)): 84.7% | residual activity (INSRR (human)): 93% | residual activity (PRKCZ (human)): 94.5% | residual activity (PRKX (human)): 104% | residual activity (MYO3B (human)): 72.5% | residual activity (ADRBK1 (human)): 105% | residual activity (EPHA7 (human)): 85.8% | residual activity (PRKACG (human)): 111% | residual activity (AXL (human)): 66.5% | residual activity (CAMKK1 (human)): 93.3% | residual activity (BMX (human)): 97.3% | residual activity (DYRK4 (human)): 96.1% | residual activity (LTK (human)): 45.5% | residual activity (TXK (human)): 102% | residual activity (PRKCB2 (human)): 99.1% | residual activity (EPHA1 (human)): 108% | residual activity (DAPK3 (human)): 106% | residual activity (SRPK3 (human)): 84.8% | residual activity (CHEK2 (human)): 85.1% | residual activity (MARK2 (human)): 44.1% | residual activity (DDR2 (human)): 105% | residual activity (BRSK1 (human)): 101% | residual activity (GRK5 (human)): 98.9% | residual activity (NEK2 (human)): 50.8% | residual activity (BTK (human)): 93.1% | residual activity (CDK1 CCNB1 (human)): 101% | residual activity (DYRK2 (human)): 101% | residual activity (MAP3K5 (human)): 105% | residual activity (VRK1 (human)): 87.3% | residual activity (CSNK1G2 (human)): 99.7% | residual activity (PHKG1 (human)): 45.2% | residual activity (PRKCD (human)): 95.3% | residual activity (MAP3K14 (human)): 109% | residual activity (TEK (human)): 90.8% | residual activity (SRPK2 (human)): 60.5% | residual activity (MAP4K2 (human)): 53.5% | residual activity (EGFR (human)): 97.1% | residual activity (FRK (human)): 95.4%

O=C1NC(=O)/C(=C/c2ccc3c(c2)OC(F)(F)O3)S1
residual activity (STK33 (human)): 90.8% | residual activity (MAP2K1 (human)): 95.6% | residual activity (GRK7 (human)): 102% | residual activity (STK39 (human)): 110% | residual activity (INSRR (human)): 110% | residual activity (PRKCZ (human)): 103% | residual activity (PRKX (human)): 101% | residual activity (MYO3B (human)): 87.9% | residual activity (ADRBK1 (human)): 103% | residual activity (EPHA7 (human)): 98.7% | residual activity (PRKACG (human)): 102% | residual activity (AXL (human)): 107% | residual activity (CAMKK1 (human)): 86% | residual activity (BMX (human)): 99.6% | residual activity (DYRK4 (human)): 97.7% | residual activity (LTK (human)): 95.5% | residual activity (TXK (human)): 95.4% | residual activity (PRKCB2 (human)): 97.6% | residual activity (EPHA1 (human)): 90.2% | residual activity (DAPK3 (human)): 104% | residual activity (SRPK3 (human)): 95.4% | residual activity (CHEK2 (human)): 97.9% | residual activity (MARK2 (human)): 96.8% | residual activity (DDR2 (human)): 90.1% | residual activity (BRSK1 (human)): 88% | residual activity (GRK5 (human)): 105% | residual activity (NEK2 (human)): 98.9% | residual activity (BTK (human)): 94.3% | residual activity (CDK1 CCNB1 (human)): 99.6% | residual activity (DYRK2 (human)): 98.6% | residual activity (MAP3K5 (human)): 105% | residual activity (VRK1 (human)): 85.6% | residual activity (CSNK1G2 (human)): 84.5% | residual activity (PHKG1 (human)): 94.2% | residual activity (PRKCD (human)): 93.2% | residual activity (DYRK3 (human)): 100% | residual activity (MAP3K14 (human)): 106% | residual activity (TEK (human)): 91.9% | residual activity (SRPK2 (human)): 105% | residual activity (MAP4K2 (human)): 90.7% | residual activity (EGFR (human)): 85.1% | residual activity (FRK (human)): 93.4%

Oc1cccc(-c2nc(N3CCOCC3)c3oc4ncccc4c3n2)c1
residual activity (MAP2K1 (human)): 97.7% | residual activity (GRK7 (human)): 100% | residual activity (STK39 (human)): 105% | residual activity (INSRR (human)): 114% | residual activity (PRKCZ (human)): 99.1% | residual activity (PRKX (human)): 96.2% | residual activity (MYO3B (human)): 81.3% | residual activity (ADRBK1 (human)): 107% | residual activity (EPHA7 (human)): 93.9% | residual activity (PRKACG (human)): 101% | residual activity (AXL (human)): 105% | residual activity (CAMKK1 (human)): 84.6% | residual activity (BMX (human)): 101% | residual activity (DYRK4 (human)): 96.6% | residual activity (LTK (human)): 97.6% | residual activity (TXK (human)): 94.8% | residual activity (PRKCB2 (human)): 102% | residual activity (EPHA1 (human)): 87.8% | residual activity (DAPK3 (human)): 93.1% | residual activity (SRPK3 (human)): 95% | residual activity (CHEK2 (human)): 90.4% | residual activity (MARK2 (human)): 92.9% | residual activity (DDR2 (human)): 94.6% | residual activity (BRSK1 (human)): 91.1% | residual activity (NEK2 (human)): 88.6% | residual activity (BTK (human)): 95.2% | residual activity (CDK1 CCNB1 (human)): 108% | residual activity (DYRK2 (human)): 97.6% | residual activity (MAP3K5 (human)): 101% | residual activity (VRK1 (human)): 98.4% | residual activity (CSNK1G2 (human)): 88.1% | residual activity (PHKG1 (human)): 93.3% | residual activity (PRKCD (human)): 96% | residual activity (DYRK3 (human)): 94.9% | residual activity (TEK (human)): 87.7% | residual activity (SRPK2 (human)): 97.3% | residual activity (MAP4K2 (human)): 93% | residual activity (EGFR (human)): 83.8% | residual activity (FRK (human)): 91.3%

CCOC(=O)c1c(C)[nH]c(/C=C2\C(=O)Nc3ccccc32)c1C
residual activity (STK33 (human)): 83.7% | residual activity (GRK7 (human)): 86.3% | residual activity (STK39 (human)): 85.1% | residual activity (INSRR (human)): 93.8% | residual activity (PRKCZ (human)): 97% | residual activity (PRKX (human)): 94.8% | residual activity (MYO3B (human)): 74.1% | residual activity (ADRBK1 (human)): 98.2% | residual activity (EPHA7 (human)): 85.3% | residual activity (PRKACG (human)): 88.4% | residual activity (AXL (human)): 88.9% | residual activity (CAMKK1 (human)): 95.3% | residual activity (BMX (human)): 93.5% | residual activity (DYRK4 (human)): 99.6% | residual activity (LTK (human)): 66.9% | residual activity (TXK (human)): 96.1% | residual activity (PRKCB2 (human)): 91.5% | residual activity (EPHA1 (human)): 90.8% | residual activity (DAPK3 (human)): 85.1% | residual activity (SRPK3 (human)): 88.8% | residual activity (CHEK2 (human)): 70.5% | residual activity (MARK2 (human)): 87.6% | residual activity (DDR2 (human)): 98% | residual activity (BRSK1 (human)): 92.6% | residual activity (GRK5 (human)): 102% | residual activity (NEK2 (human)): 91.4% | residual activity (BTK (human)): 95.6% | residual activity (CDK1 CCNB1 (human)): 100% | residual activity (DYRK2 (human)): 92.4% | residual activity (VRK1 (human)): 104% | residual activity (CSNK1G2 (human)): 84.8% | residual activity (PHKG1 (human)): 73.3% | residual activity (PRKCD (human)): 91.6% | residual activity (DYRK3 (human)): 102% | residual activity (MAP3K14 (human)): 118% | residual activity (SRPK2 (human)): 92.3% | residual activity (MAP4K2 (human)): 95.5% | residual activity (EGFR (human)): 92.2% | residual activity (FRK (human)): 95.3%

COc1cc2ncnc(Nc3cccc(Cl)c3)c2cc1OC
residual activity (STK33 (human)): 88.3% | residual activity (MAP2K1 (human)): 98.5% | residual activity (GRK7 (human)): 85.4% | residual activity (STK39 (human)): 97% | residual activity (INSRR (human)): 99% | residual activity (PRKCZ (human)): 102% | residual activity (PRKX (human)): 92.5% | residual activity (MYO3B (human)): 81.2% | residual activity (ADRBK1 (human)): 96.6% | residual activity (EPHA7 (human)): 65% | residual activity (PRKACG (human)): 87.9% | residual activity (AXL (human)): 95.3% | residual activity (CAMKK1 (human)): 92.2% | residual activity (BMX (human)): 88.6% | residual activity (DYRK4 (human)): 91.7% | residual activity (LTK (human)): 60.3% | residual activity (TXK (human)): 75% | residual activity (PRKCB2 (human)): 95.5% | residual activity (EPHA1 (human)): 81.7% | residual activity (DAPK3 (human)): 94.6% | residual activity (SRPK3 (human)): 90.1% | residual activity (CHEK2 (human)): 79.7% | residual activity (DDR2 (human)): 99.2% | residual activity (BRSK1 (human)): 93.1% | residual activity (GRK5 (human)): 105% | residual activity (NEK2 (human)): 88.3% | residual activity (BTK (human)): 76.7% | residual activity (CDK1 CCNB1 (human)): 90.3% | residual activity (DYRK2 (human)): 84.6% | residual activity (MAP3K5 (human)): 106% | residual activity (VRK1 (human)): 105% | residual activity (CSNK1G2 (human)): 97.1% | residual activity (PHKG1 (human)): 88.9% | residual activity (PRKCD (human)): 86.4% | residual activity (DYRK3 (human)): 96.3% | residual activity (MAP3K14 (human)): 107% | residual activity (TEK (human)): 88.6% | residual activity (SRPK2 (human)): 88.2% | residual activity (MAP4K2 (human)): 98.1% | residual activity (EGFR (human)): 0.718% | residual activity (FRK (human)): 81.1%
